From patent US20060094790A1, “Use of sphingosine kinase activator as skin disease treating agent and method for treating skin diseases using the same” (priority 2004, published 2006)

Legend:
RBL-2H3 cell line = assay: Intracellular calcium movement (fura-2 fluorescence); assay type: cell-based; conditions: RBL-2H3 cells, fura-2, FIGS. 1a to 1d
Procedure: First, the following experiment for calcium movement was performed in order to determine whether the above sphingosine kinase activator compounds activate sphingosine-1-phosphate, so as to cause intracellular calcium movement, which is a typical activity specific to sphingosine-1-phosphate.
The sphingosine kinase activator compounds were determined for capability of inducing intracellular calcium movement by using a RBL-2H3 cell line, which is one of the typical cell lines showing intracellular calcium movement. The cells are cultured by using an RPMI 1640 culture medium and the cells were washed simultaneously with removal of the medium. Then, 10 μM of fura-2/Am and 250 μl M of sulfinpyrazone were added thereto, followed by incubation for 30 minutes. Cell pellets were obtained by centrifugal separation and the cell pellets were dispersed in Ca^2+-free Locke's solution. The dispersion was divided into a unit of 1×10^6 cells for use in treating samples. Next, the cells were introduced into a cuvet of a fluorescence microscope, each sphingosine kinase activator compound was added thereto, and intracellular calcium movement was observed by the fluorescence microscope (RF-5310PC, Spectrofluoro photometer, SHIMADZU). When intracellular calcium ions are detected, they cause fluorescence by bonding with fura-2. Therefore, a degree of calcium movement caused by a sample was evaluated by calculating a difference between the measurement of fura-2 ([…]) bonded with calcium and that of non-bonded fura-2 ([…]).

hairless mouse [1] = assay: Recovery of calcium gradient on epidermis, acute disruption model by tape stripping; assay type: in vivo; conditions: 1.0% in PEG:EtOH=7:3, after tape stripping, compared to control
Procedure: To determine the effect of recovering skin barrier effects obtained by the compound according to the present invention, the compound was evaluated for the effect of recovering a calcium ion gradient in the epidermis.
The calcium gradient in the epidermis plays very important role in maintaining homoeostasis of the skin barrier function. For example, when a hairless mouse is subjected to acute disruption on its back by tape stripping, the calcium ion gradient in the epidermis is lost. Therefore, it is possible to evaluate the effect of a test sample upon recovery of a damaged skin barrier by observing recovery of the calcium gradient loss in an acute disruption model.
In the following test, K6PC-5 according to the present invention was evaluated for the effect upon variations in calcium gradient in an acute disruption model.
Tissues non-treated with the sample were provided as control, and tissues were collected right after the tape striping, and 3, 6 and 24 hours after the tape stripping. Then, the tissues treated with K6PC-5 (1.0% in PEG:EtOH=7:3) were compared with controls, which are treated by calcium ion capture cell chemical dyeing. More particularly, each freshly collected tissue sample was fixed with a fixing solution comprising 2% glutaraldehyde, 2% formaldehyde, 90 mM potassium oxalate and 1.4% sucrose and refrigerated at 4° C. […]

SD rat = assay: Inhibition of wrinkles and skin aging, UV-induced wrinkle model; assay type: in vivo
Procedure: Generally, continuous exposure to UV causes wrinkles and side effects such as sun burn and skin irritation, resulting in stimulation of skin aging.
To perform the evaluation, an SD rat with three wrinkles is irradiated with UVB under an intensity of 130 mJ/cm^2 at its rear leg […] for 6 weeks. Then, 10 μl (1% in 80% EtOH) of K6PC-5 was applied to the skin of rear leg right after each time of UV irradiation, UV irradiation being performed 5 times per week during 6 weeks from the start day of the UV irradiation. Nine weeks after the treatment, the rat was anesthetized with albutin and the wrinkles were photographed. Additionally, wrinkle-forming portions were replicated by using an exafine hydrophilic vinyl polysiloxane impression material. The replicated images were analyzed quantitively for shadow images by using an image analyzer.

hairless mouse [2] = assay type: in vivo; conditions: 1.0% in PEG:EtOH=7:3 combined with 0.05% chlobetason-17-propionate, back of hairless mouse, H & E staining
From the text: To evaluate effect of the sphingosine kinase activator upon inhibition of steroid side effects, a steroid was applied to a hairless mouse. Typically, side effects caused by long-term or excessive dose of steroids include skin atrophy expressed by thinning of skin and weakening of skin functions, and a rebound phenomenon including reoccurrence of conditions caused by stopping use of steroids. It is reported that the main cause for such side effects is inhibition of fibroblast activity and a decrease in collagen production (S. Hammer et al., J. Cell. Biochem, 91, 840-851, 2004), Therefore, it is expected that the compound according to the present invention enhances collagen synthesis and differentiation of keratinocytes, and thus inhibits such side effects caused by steroids. To perform a test, a steroid, i.e. 0.05% chlobetason-17-propionate, and […]-5 according to the present invention (1.0% in PEG:EtOH=7:3) were applied to a hairless mouse and changes in the skin were observed. The treating agents were applied to the back of a hairless mouse 9 times per day and the tissue was collected. Then, the epidermis and dermis were observed by carrying out the H & E staining method (hematoxylin and eosin staining) known to one skilled in the art.

guinea pigs = conditions: guinea pig, in vivo
Procedure: (§1) Those tests were performed based on “Toxicity Test Standards for Pharmaceutical Products” disclosed by the Korea Food & Drug Administration.

human body = conditions: in vivo
Procedure: as §1

CCCCCCCC(=O)C(CCCCCC)C(=O)NC(CO)CO (stereo not shown) [K6PC-5, N-(1,3-dihydroxyisopropyl)-2-hexyl-3-oxo-decanamide]
intracellular calcium movement (RBL-2H3 cell line): caused intracellular calcium movement
recovery of calcium gradient in the epidermis (hairless mouse [1]): began to be recovered, from 3 hours after the treatment, to form the normal calcium gradient rapidly
inhibition of wrinkles compared to vehicle control (SD rat; 10 μl of 1% in 80% EtOH after each UVB irradiation (130 mJ/cm^2), 6 weeks, replica image analysis): about 63%
erythema caused by UV compared to vehicle control (SD rat; 10 μl of 1% in 80% EtOH after each UVB irradiation, skin photograph FIG. 4b): decrease in erythema
inhibition of steroid side effects (skin atrophy) (hairless mouse [2]): significant inhibition of side effects caused by steroids
Skin sensitization test result (guinea pigs): No irritation
Human body application test result (human body): No irritation
